# Laboratory results published in ChEMBL document CHEMBL3885881, “DrugMatrix”.
# Species: Rattus norvegicus
# Test: DrugMatrix - Regimen: Daily Repeat
# Format: toxicity, organism-based, Sprague-Dawley
# Design: regimen Daily Repeat, gender Male, age 6-8 weeks
# Conditions: in vivo, ip, route intraperitoneal, vehicle 100 % SALINE; for ABSOLUTE BASOPHIL / ABSOLUTE EOSINOPHIL / ABSOLUTE LYMPHOCYTE / ABSOLUTE MONOCYTE / ABSOLUTE SEGMENTED NEUTROPHIL / BASOPHIL / EOSINOPHIL / ERYTHROCYTE COUNT / HEMATOCRIT / HEMOGLOBIN / LEUKOCYTE COUNT / LYMPHOCYTE / MEAN CORPUSCULAR HEMOGLOBIN / MEAN CORPUSCULAR HEMOGLOBIN CONCENTRATION / MEAN CORPUSCULAR VOLUME / MONOCYTE / NEUTROPHIL / PLATELET COUNT: tissue Blood; for ALANINE AMINOTRANSFERASE / ALBUMIN / ALKALINE PHOSPHATASE / ASPARTATE AMINOTRANSFERASE / BLOOD UREA NITROGEN / CHLORIDE / CHOLESTEROL / CREATININE / GLUCOSE / LACTATE DEHYDROGENASE / LIPASE / PHOSPHORUS / POTASSIUM / SODIUM / TOTAL BILIRUBIN / TOTAL PROTEIN / URIC ACID / CREATINE PHOSPHOKINASE: tissue Plasma
# [1] = 0 mg/kg, 120 h, dose level Control, time 5 day
# [2] = 0 mg/kg, […], dose level Control, time 14 day
# [3] = 0 mg/kg, […], dose level Control, time 28 day
# [4] = 160 mg/kg, 120 h, dose level High, time 5 day
compound,measurement,setting,value
NCC[C@H](O)C(=O)N[C@@H]1C[C@H](N)[C@@H](O[C@H]2O[C@H](CN)[C@@H](O)[C@H](O)[C@H]2O)[C@H](O)[C@H]1O[C@H]1O[C@H](CO)[C@@H](O)[C@H](N)[C@H]1O [AMIKACIN],ABSOLUTE BASOPHIL,[1],32 cells/µL
same,ABSOLUTE EOSINOPHIL,[1],110 cells/µL
same,ABSOLUTE LYMPHOCYTE,[1],6630 cells/µL
same,ABSOLUTE MONOCYTE,[1],140 cells/µL
same,ABSOLUTE SEGMENTED NEUTROPHIL,[1],1170 cells/µL
same,BASOPHIL,[1],0.38%
same,EOSINOPHIL,[1],1.28%
same,ERYTHROCYTE COUNT,[1],7.45 x10E6/uL
same,HEMATOCRIT,[1],45.74%
same,HEMOGLOBIN,[1],14.72 G/DL
same,LEUKOCYTE COUNT,[1],8.11 x10E3/uL
same,LYMPHOCYTE,[1],81.3%
same,MEAN CORPUSCULAR HEMOGLOBIN,[1],19.76 pg
same,MEAN CORPUSCULAR HEMOGLOBIN CONCENTRATION,[1],32.16 G/DL
same,MEAN CORPUSCULAR VOLUME,[1],61.38 fL
same,MONOCYTE,[1],1.76%
same,NEUTROPHIL,[1],14.9%
same,PLATELET COUNT,[1],1322.4 x10E3/uL
same,ALANINE AMINOTRANSFERASE,[1],25.8 u/L
same,ALBUMIN,[1],3.64 G/DL
same,ALKALINE PHOSPHATASE,[1],233.6 u/L
same,ASPARTATE AMINOTRANSFERASE,[1],81.4 u/L
same,BLOOD UREA NITROGEN,[1],14.4 mg/dL
same,CHLORIDE,[1],105.6 MEQ/L
same,CHOLESTEROL,[1],69.2 mg/dL
same,CREATININE,[1],0.56 mg/dL
same,GLUCOSE,[1],125.4 mg/dL
same,LACTATE DEHYDROGENASE,[1],105.4 u/L
same,LIPASE,[1],22.4 u/L
same,PHOSPHORUS,[1],11.48 mg/dL
same,POTASSIUM,[1],5.52 MEQ/L
same,SODIUM,[1],147 MEQ/L
same,TOTAL BILIRUBIN,[1],0.2 mg/dL
same,TOTAL PROTEIN,[1],6.1 G/DL
same,URIC ACID,[1],1.06 mg/dL
same,ABSOLUTE BASOPHIL,[2],130 cells/µL
same,ABSOLUTE EOSINOPHIL,[2],140 cells/µL
same,ABSOLUTE LYMPHOCYTE,[2],13500 cells/µL
same,ABSOLUTE MONOCYTE,[2],400 cells/µL
same,ABSOLUTE SEGMENTED NEUTROPHIL,[2],2330 cells/µL
same,BASOPHIL,[2],0.72%
same,EOSINOPHIL,[2],0.86%
same,ERYTHROCYTE COUNT,[2],7.74 x10E6/uL
same,HEMATOCRIT,[2],45.98%
same,HEMOGLOBIN,[2],13.86 G/DL
same,LEUKOCYTE COUNT,[2],16.61 x10E3/uL
same,LYMPHOCYTE,[2],81.34%
same,MEAN CORPUSCULAR HEMOGLOBIN,[2],18 pg
same,MEAN CORPUSCULAR HEMOGLOBIN CONCENTRATION,[2],30.22 G/DL
same,MEAN CORPUSCULAR VOLUME,[2],59.4 fL
same,MONOCYTE,[2],2.46%
same,NEUTROPHIL,[2],14.14%
same,PLATELET COUNT,[2],1445.5 x10E3/uL
same,ABSOLUTE BASOPHIL,[3],91 cells/µL
same,ABSOLUTE EOSINOPHIL,[3],110 cells/µL
same,ABSOLUTE LYMPHOCYTE,[3],9910 cells/µL
same,ABSOLUTE MONOCYTE,[3],210 cells/µL
same,ABSOLUTE SEGMENTED NEUTROPHIL,[3],1560 cells/µL
same,BASOPHIL,[3],0.77%
same,EOSINOPHIL,[3],0.92%
same,ERYTHROCYTE COUNT,[3],8.21 x10E6/uL
same,HEMATOCRIT,[3],47.53%
same,HEMOGLOBIN,[3],15.65 G/DL
same,LEUKOCYTE COUNT,[3],11.91 x10E3/uL
same,LYMPHOCYTE,[3],83.34%
same,MEAN CORPUSCULAR HEMOGLOBIN,[3],19.07 pg
same,MEAN CORPUSCULAR HEMOGLOBIN CONCENTRATION,[3],32.93 G/DL
same,MEAN CORPUSCULAR VOLUME,[3],57.9 fL
same,MONOCYTE,[3],1.68%
same,NEUTROPHIL,[3],12.97%
same,PLATELET COUNT,[3],1323.8 x10E3/uL
same,ALANINE AMINOTRANSFERASE,[2],31.6 u/L
same,ALBUMIN,[2],3.66 G/DL
same,ALKALINE PHOSPHATASE,[2],228.6 u/L
same,ASPARTATE AMINOTRANSFERASE,[2],79.6 u/L
same,BLOOD UREA NITROGEN,[2],11.2 mg/dL
same,CHLORIDE,[2],107 MEQ/L
same,CHOLESTEROL,[2],57 mg/dL
same,CREATINE PHOSPHOKINASE,[2],233.6 u/L
same,CREATININE,[2],0.5 mg/dL
same,GLUCOSE,[2],124.4 mg/dL
same,LACTATE DEHYDROGENASE,[2],106.4 u/L
same,LIPASE,[2],24.4 u/L
same,PHOSPHORUS,[2],10.52 mg/dL
same,POTASSIUM,[2],6.34 MEQ/L
same,SODIUM,[2],149.2 MEQ/L
same,TOTAL BILIRUBIN,[2],0.2 mg/dL
same,TOTAL PROTEIN,[2],6.48 G/DL
same,URIC ACID,[2],0.94 mg/dL
same,ALANINE AMINOTRANSFERASE,[3],30 u/L
same,ALBUMIN,[3],3.71 G/DL
same,ALKALINE PHOSPHATASE,[3],186.8 u/L
same,ASPARTATE AMINOTRANSFERASE,[3],78.2 u/L
same,BLOOD UREA NITROGEN,[3],14.2 mg/dL
same,CHLORIDE,[3],105.4 MEQ/L
same,CHOLESTEROL,[3],44.9 mg/dL
same,CREATINE PHOSPHOKINASE,[3],334.3 u/L
same,CREATININE,[3],0.6 mg/dL
same,GLUCOSE,[3],147.2 mg/dL
same,LACTATE DEHYDROGENASE,[3],123.1 u/L
same,LIPASE,[3],9.6 u/L
same,PHOSPHORUS,[3],10.01 mg/dL
same,POTASSIUM,[3],6.57 MEQ/L
same,SODIUM,[3],149.5 MEQ/L
same,TOTAL BILIRUBIN,[3],0.21 mg/dL
same,TOTAL PROTEIN,[3],6.66 G/DL
same,URIC ACID,[3],1.26 mg/dL
same,ABSOLUTE BASOPHIL,[4],42 cells/µL
same,ABSOLUTE EOSINOPHIL,[4],76 cells/µL
same,ABSOLUTE LYMPHOCYTE,[4],7260 cells/µL
